Data from ChEMBL document CHEMBL1165921, “New potent inhibitors of tyrosinase: novel clues to binding of 1,3,4-thiadiazole-2(3H)-thiones, 1,3,4-oxadiazole-2(3H)-thiones, 4-amino-1,2,4-triazole-5(4H)-thiones, and substituted hydrazides to the dicopper active site” (Bioorg Med Chem, 2010).
pKi: −log10 of the molar value.

The molecules below were run against T1, Tyrosinase (Agaricus bisporus, UniProt O42713).
T1 sequence (O42713 whole entry): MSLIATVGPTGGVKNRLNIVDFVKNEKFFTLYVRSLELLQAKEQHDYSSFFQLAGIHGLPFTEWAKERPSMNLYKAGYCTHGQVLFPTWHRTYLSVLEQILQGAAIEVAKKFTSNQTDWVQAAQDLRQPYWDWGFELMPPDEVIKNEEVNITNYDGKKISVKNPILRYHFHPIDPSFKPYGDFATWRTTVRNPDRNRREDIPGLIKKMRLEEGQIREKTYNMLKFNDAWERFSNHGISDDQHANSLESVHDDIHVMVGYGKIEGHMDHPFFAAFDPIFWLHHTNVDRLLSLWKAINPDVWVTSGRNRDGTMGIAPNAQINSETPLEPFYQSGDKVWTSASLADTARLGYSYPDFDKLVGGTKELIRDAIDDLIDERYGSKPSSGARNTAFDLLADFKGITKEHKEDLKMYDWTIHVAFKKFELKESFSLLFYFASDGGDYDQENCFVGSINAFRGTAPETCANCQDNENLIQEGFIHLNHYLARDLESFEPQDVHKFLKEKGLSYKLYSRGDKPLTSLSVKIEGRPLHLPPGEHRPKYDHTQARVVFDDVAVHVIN
Description: Inhibition of mashroom tyrosinase
`Nn1c(-c2ccc(O)cc2)n[nH]c1=S` showed a pKi of 5.62.
In the case of `S=c1[nH]nc(-c2n[nH]c(=S)s2)s1`, the pKi was 5.54.
`S=c1[nH]nc(-c2ccccc2)o1` showed a pKi of 5.19.
For `Sc1nnc(Cc2ccccc2)o1`, the pKi was 5.44.
With `NNC(=O)c1ccc(OCc2ccccc2)cc1` the pKi was 4.31.
With `S=c1[nH]nc(-c2n[nH]c(=S)o2)o1` the pKi was 4.16.
For `S=c1[nH]nc(-c2cccc3ccccc23)o1`, the pKi was 4.47.
With `NNC(=O)c1ccc(O)cc1` the pKi was 3.75.
Molecule `NNC(=O)c1ccc2ccccc2c1` has a pKi of 4.00.
With `Oc1ccc(-c2nnc(S)o2)cc1` the pKi was 5.75.
In the case of `S=c1[nH]nc(C2CCCCC2)o1`, the pKi was 5.31.
For `Nn1c(-c2ccncc2)n[nH]c1=S`, the pKi was 6.00.
In the case of `Sc1nnc(-c2ccncc2)o1`, the pKi was 4.85.
Work on `S=c1[nH]nc(C(c2ccccc2)c2ccccc2)s1` yielded a pKi of 5.28.
`Sc1nnc(C(c2ccccc2)c2ccccc2)o1` gave a pKi of 5.17.
Molecule `Sc1nnc(CCCc2nnc(S)o2)o1` has a pKi of 5.72.
`Sc1nnc(-c2cccc(OCc3ccccc3)c2)o1` gave a pKi of 5.44.
`Sc1nnc(Cc2nnc(S)s2)s1` showed a pKi of 6.31.
`Oc1cccc(-c2nnc(S)o2)c1` was tested, and the pKi was 4.73.
`CC(C)(C)[Si](C)(C)Oc1ccc(-c2nnc(S)s2)cc1` showed a pKi of 6.28.
For `Oc1ccc(-c2nnc(S)s2)cc1`, the pKi was 6.72.
`S=c1[nH]nc(-c2ccncc2)s1` showed a pKi of 5.61.
Molecule `Sc1nnc(-c2ccccc2)s1` has a pKi of 5.88.
`S=c1[nH]nc(-c2ccc(OCc3ccccc3)cc2)o1` was tested, and the pKi was 5.87.
`Sc1nnc(Cc2nnc(S)o2)o1` showed a pKi of 5.35.
